Data: PMC11904993, “Humanized Candida and NanoBiT Assays Expedite Discovery of Bdf1 Bromodomain Inhibitors With Antifungal Potential” (Advanced Science, 2025)
Where “and” joins values, the source holds several entries; their conditions need not be identical. Identical values can stand only once.

Assays:
[1] = biological target: T1, human Brd4 BD2 (Homo sapiens, UniProt O60885); assay: HTRF assay, inhibition of H4ac4 peptide binding; details: for %HTRF Signal hBrd4 BD2: Fig 2E
T1 construct: GST‐tagged BD2 (residues 349–460) from human Brd4 (UniProt ID O60885); purchased Reaction Biology Corp

[2] = biological target: T2, CaBdf1 BD1 (Candida albicans, UniProt Q5A4W8); assay: HTRF assay, inhibition of H4ac4 peptide binding; design: species or system C. albicans
T2 construct: BD1 (residues 193–327) and BD2 (residues 361–501) from CaBdf1 (Uniprot ID Q5A4W8); made in house; host or cells: E. coli BL21(DE3)
T2 sequence (Q5A4W8 193-327): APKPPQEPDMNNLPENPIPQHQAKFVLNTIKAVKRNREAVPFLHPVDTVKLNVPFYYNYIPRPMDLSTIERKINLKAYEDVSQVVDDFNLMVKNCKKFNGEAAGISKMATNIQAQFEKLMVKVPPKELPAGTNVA

[3] = biological target: T3, CaBdf1 BD2 (Candida albicans, UniProt Q5A4W8); assay: HTRF assay, inhibition of H4ac4 peptide binding; design: species or system C. albicans
T3 construct: BD1 (residues 193–327) and BD2 (residues 361–501) from CaBdf1 (Uniprot ID Q5A4W8); made in house; host or cells: E. coli BL21(DE3)
T3 sequence (Q5A4W8 361-501): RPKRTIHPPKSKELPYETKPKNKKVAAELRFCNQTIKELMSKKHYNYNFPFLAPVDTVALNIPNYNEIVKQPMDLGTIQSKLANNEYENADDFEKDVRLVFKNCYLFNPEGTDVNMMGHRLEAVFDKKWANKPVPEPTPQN

[4] = biological target: C. auris Bdf1 BD2 (Candidozyma auris (Candida auris), UniProt A0AAW0VEM6); assay: HTRF assay, inhibition of H4ac4 peptide binding
C. auris Bdf1 BD2, sequence (A0AAW0VEM6 entry or part of it): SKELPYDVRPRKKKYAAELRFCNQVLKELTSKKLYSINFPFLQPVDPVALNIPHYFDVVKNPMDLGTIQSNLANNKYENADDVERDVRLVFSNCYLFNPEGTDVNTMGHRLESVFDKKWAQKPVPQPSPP

[5] = biological target: T4, Bdf1‐SmBiT/H2A.Z‐LgBiT pair (Saccharomyces cerevisiae, UniProt P35817); assay: NanoBiT assay; format: cell-based, S. cerevisiae; design: remaining activity: dose or concentration left out as unconfirmed
T4 construct: expressed in transfected cells; host or cells: S. cerevisiae (H2A.Z-LgBiT strain)
T4 sequence (P35817 whole entry): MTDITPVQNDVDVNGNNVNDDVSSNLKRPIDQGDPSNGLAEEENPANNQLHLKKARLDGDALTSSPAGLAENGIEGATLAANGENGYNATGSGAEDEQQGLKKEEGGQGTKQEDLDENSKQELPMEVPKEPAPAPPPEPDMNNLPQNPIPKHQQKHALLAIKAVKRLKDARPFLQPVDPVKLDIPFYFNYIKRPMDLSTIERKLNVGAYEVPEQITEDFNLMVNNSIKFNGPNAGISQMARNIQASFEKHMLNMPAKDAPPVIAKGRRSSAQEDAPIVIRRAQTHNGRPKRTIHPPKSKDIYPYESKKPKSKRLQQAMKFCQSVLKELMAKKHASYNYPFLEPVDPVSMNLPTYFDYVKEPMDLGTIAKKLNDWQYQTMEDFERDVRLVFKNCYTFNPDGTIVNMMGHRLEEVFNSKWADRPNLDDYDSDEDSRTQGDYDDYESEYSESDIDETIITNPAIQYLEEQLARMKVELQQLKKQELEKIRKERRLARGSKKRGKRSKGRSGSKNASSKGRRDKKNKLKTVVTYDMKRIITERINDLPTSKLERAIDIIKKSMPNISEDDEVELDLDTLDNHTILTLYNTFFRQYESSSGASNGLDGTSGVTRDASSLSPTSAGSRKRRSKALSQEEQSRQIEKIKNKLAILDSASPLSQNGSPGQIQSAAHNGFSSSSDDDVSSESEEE
Procedure: Yeast strains were distributed in 96‐well microplates containing SC(MSG)‐U medium (SC‐U medium with 0.1% monosodium glutamate instead of ammonium sulfate as a nitrogen source) and grown at 30 °C. 40 µL of exponentially growing cells were transferred in white 96‐well half‐area microplates (ProxiPlate Plus, Greiner Bio‐One) previously filled with 40 µL per well of SC(MSG) containing 100 µM furimazine. The microplates were then incubated for 10 min in the dark before the luminescence signals were recorded using a microplate reader (Ensight, PerkinElmer). Luminescence measurements were performed for 1 s per well at a distance of 0.1 mm between the plate and the detector. The luminescence values were normalized with the optical density (OD600) of the corresponding cultures. For NanoBiT assays with BET inhibitors, yeast cultures were grown overnight at 30 °C in SC(MSG) medium in the presence of serial dilutions of 24c and I‐BET726. Overnight cultures were diluted 5 fold in SC(MSG) and incubated for 1 h before luminescence was recorded as previously indicated. Luminescence values for each condition were normalized using the average of the luminescence recorded for the Bdf1/Swc4 and Bmh1/Bmh2 controls.

`Cc1ccc(-c2nnc(C)c(NCc3ccc(C)o3)n2)cc1` [Compound 24c, 6‐methyl‐N‐((5‐methylfuran‐2‐yl)methyl)‐3‐(p‐tolyl)‐1,2,4‐triazin‐5‐amine] was tested, and the IC50 [1] was greater than 20 µM, the “%HTRF Signal hBrd4 BD2” value ([1]; 0.002 microM) was 101.87% and 97.60% and 95.93% and the “%HTRF Signal hBrd4 BD2” value ([1]; 0.005 microM) was 107.00% and 95.29% and 98.83%. For the same compound, the “%HTRF Signal hBrd4 BD2” value ([1]; 0.013 microM) was 110.74% and 98.44% and 97.06%, the “%HTRF Signal hBrd4 BD2” value ([1]; 0.033 microM) was 106.00% and 100.34% and 100.19% and the “%HTRF Signal hBrd4 BD2” value ([1]; 0.082 microM) was 114.59% and 102.11% and 105.40%. For the same compound, the “%HTRF Signal hBrd4 BD2” value ([1]; 0.205 microM) was 102.46% and 102.49% and 103.89%, the “%HTRF Signal hBrd4 BD2” value ([1]; 0.512 microM) was 110.69% and 102.99% and 100.42% and the “%HTRF Signal hBrd4 BD2” value ([1]; 1.280 microM) was 110.63% and 103.66% and 98.46%. For the same compound, the “%HTRF Signal hBrd4 BD2” value ([1]; 3.200 microM) was 107.03% and 99.12% and 95.88%, the “%HTRF Signal hBrd4 BD2” value ([1]; 8.000 microM) was 99.23% and 96.86% and 85.81% and the “%HTRF Signal hBrd4 BD2” value ([1]; 20.000 microM) was 80.43% and 88.19% and 83.66%. For the same compound, the remaining activity at 0.013 µM ([2]; CaBD1, 24c 0.013 microM, Exp1-2, read-out: Percent HTRF Signal) was 94%, the remaining activity at 0.033 µM ([2]; CaBD1, 24c 0.033 microM, Exp1-2, read-out: Percent HTRF Signal) was 100% and the remaining activity at 0.082 µM ([2]; CaBD1, 24c 0.082 microM, Exp1-2, read-out: Percent HTRF Signal) was 99.6%. For the same compound, the remaining activity at 0.2 µM ([2]; CaBD1, 24c 0.20 microM, Exp1-2, read-out: Percent HTRF Signal) was 102%, the remaining activity at […] ([2]; CaBD1, 24c 0.51 microM, Exp1-2, read-out: Percent HTRF Signal) was 96.9% and the remaining activity at 1.28 µM ([2]; CaBD1, 24c 1.28 microM, Exp1-2, read-out: Percent HTRF Signal) was 99%. For the same compound, the remaining activity at 3.2 µM ([2]; CaBD1, 24c 3.20 microM, Exp1-2, read-out: Percent HTRF Signal) was 90.4%, the remaining activity at 8 µM ([2]; CaBD1, 24c 8.00 microM, Exp1-2, read-out: Percent HTRF Signal) was 85.5% and the remaining activity at 20 µM ([2]; CaBD1, 24c 20.00 microM, Exp1-2, read-out: Percent HTRF Signal) was 73.3%. The “inhibition of Bdf1 BD1 from C. albicans” value ([2]; HTRF, Fig S9C) was “weakly inhibited”, the remaining activity at 0.013 µM ([3]; CaBD2, 24c 0.013 microM, Exp1-2, read-out: Percent HTRF Signal) was 94.3% and the remaining activity at 0.033 µM ([3]; CaBD2, 24c 0.033 microM, Exp1-2, read-out: Percent HTRF Signal) was 96.5%. It also gave a remaining activity at 0.082 µM ([3]; CaBD2, 24c 0.082 microM, Exp1-2, read-out: Percent HTRF Signal) of 102%, a remaining activity at 0.2 µM ([3]; CaBD2, 24c 0.20 microM, Exp1-2, read-out: Percent HTRF Signal) of 102% and a remaining activity at […] ([3]; CaBD2, 24c 0.51 microM, Exp1-2, read-out: Percent HTRF Signal) of 97.5%. It also gave a remaining activity at 1.28 µM ([3]; CaBD2, 24c 1.28 microM, Exp1-2, read-out: Percent HTRF Signal) of 98.1%, a remaining activity at 3.2 µM ([3]; CaBD2, 24c 3.20 microM, Exp1-2, read-out: Percent HTRF Signal) of 92.6% and a remaining activity at 8 µM ([3]; CaBD2, 24c 8.00 microM, Exp1-2, read-out: Percent HTRF Signal) of 90.1%. For the same compound, the remaining activity at 20 µM ([3]; CaBD2, 24c 20.00 microM, Exp1-2, read-out: Percent HTRF Signal) was 74.1%, the “inhibition of Bdf1 BD2 from C. albicans” value ([3]; HTRF, Fig S9C) was “weakly inhibited” and the remaining activity at 0.0021 µM ([4]; CauBD2, 24c 0.0021 microM, Exp1-3, read-out: Percent HTRF Signal) was 100%. It also gave a remaining activity at 0.0052 µM ([4]; CauBD2, 24c 0.0052 microM, Exp1-3, read-out: Percent HTRF Signal) of 94.4%, a remaining activity at 0.013 µM ([4]; CauBD2, 24c 0.013 microM, Exp1-3, read-out: Percent HTRF Signal) of 99.2% and a remaining activity at 0.033 µM ([4]; CauBD2, 24c 0.033 microM, Exp1-3, read-out: Percent HTRF Signal) of 100%. For the same compound, the remaining activity at 0.082 µM ([4]; CauBD2, 24c 0.082 microM, Exp1-3, read-out: Percent HTRF Signal) was 106%, the remaining activity at 0.2 µM ([4]; CauBD2, 24c 0.20 microM, Exp1-3, read-out: Percent HTRF Signal) was 105% and the remaining activity at […] ([4]; CauBD2, 24c 0.51 microM, Exp1-3, read-out: Percent HTRF Signal) was 99.5%. It also gave a remaining activity at 1.28 µM ([4]; CauBD2, 24c 1.28 microM, Exp1-3, read-out: Percent HTRF Signal) of 100%, a remaining activity at 3.2 µM ([4]; CauBD2, 24c 3.20 microM, Exp1-3, read-out: Percent HTRF Signal) of 98.7% and a remaining activity at 8 µM ([4]; CauBD2, 24c 8.00 microM, Exp1-3, read-out: Percent HTRF Signal) of 84%. For the same compound, the remaining activity at 20 µM ([4]; CauBD2, 24c 20.00 microM, Exp1-3, read-out: Percent HTRF Signal) was 79.1%, the “inhibition of Bdf1 BD2 from C. auris” value ([4]; HTRF, Fig S9C) was “weakly inhibited” and the remaining activity at 195.3 µM ([5]; Bdf1-SmBiT, Htz1-LgBiT, 0.1953 mM, Fig 4C, read-out: Normalized nanoBiT signal) was 99%. The remaining activity at 390.6 µM ([5]; Bdf1-SmBiT, Htz1-LgBiT, 0.3906 mM, Fig 4C, read-out: Normalized nanoBiT signal) was 98%, the remaining activity at 781.3 µM ([5]; Bdf1-SmBiT, Htz1-LgBiT, 0.7813 mM, Fig 4C, read-out: Normalized nanoBiT signal) was 99% and the remaining activity at 3125 µM ([5]; Bdf1-SmBiT, Htz1-LgBiT, 3.1250 mM, Fig 4C, read-out: Normalized nanoBiT signal) was 98%. It also gave a remaining activity ([5]; Bdf1-SmBiT, Htz1-LgBiT, […], Fig 4C, read-out: Normalized nanoBiT signal) of 85% and an IC50 ([5]; mean and s.d., 4 independent experiments, read-out: IC50 (μM) (ScBdf1 / H2A.Z) NanoBiT signal) of 65 µM.
